Structures are written as SMILES. pIC50: −log10 of the molar value.

The experiment addresses T1, TNKS1 (Homo sapiens, UniProt O95271).
T1 construct: purchased BPS Bioscience, San Diego, USA 80579 (TNKS1 Histone Ribosylation Assay Kit)
T1 sequence (O95271 1-1327): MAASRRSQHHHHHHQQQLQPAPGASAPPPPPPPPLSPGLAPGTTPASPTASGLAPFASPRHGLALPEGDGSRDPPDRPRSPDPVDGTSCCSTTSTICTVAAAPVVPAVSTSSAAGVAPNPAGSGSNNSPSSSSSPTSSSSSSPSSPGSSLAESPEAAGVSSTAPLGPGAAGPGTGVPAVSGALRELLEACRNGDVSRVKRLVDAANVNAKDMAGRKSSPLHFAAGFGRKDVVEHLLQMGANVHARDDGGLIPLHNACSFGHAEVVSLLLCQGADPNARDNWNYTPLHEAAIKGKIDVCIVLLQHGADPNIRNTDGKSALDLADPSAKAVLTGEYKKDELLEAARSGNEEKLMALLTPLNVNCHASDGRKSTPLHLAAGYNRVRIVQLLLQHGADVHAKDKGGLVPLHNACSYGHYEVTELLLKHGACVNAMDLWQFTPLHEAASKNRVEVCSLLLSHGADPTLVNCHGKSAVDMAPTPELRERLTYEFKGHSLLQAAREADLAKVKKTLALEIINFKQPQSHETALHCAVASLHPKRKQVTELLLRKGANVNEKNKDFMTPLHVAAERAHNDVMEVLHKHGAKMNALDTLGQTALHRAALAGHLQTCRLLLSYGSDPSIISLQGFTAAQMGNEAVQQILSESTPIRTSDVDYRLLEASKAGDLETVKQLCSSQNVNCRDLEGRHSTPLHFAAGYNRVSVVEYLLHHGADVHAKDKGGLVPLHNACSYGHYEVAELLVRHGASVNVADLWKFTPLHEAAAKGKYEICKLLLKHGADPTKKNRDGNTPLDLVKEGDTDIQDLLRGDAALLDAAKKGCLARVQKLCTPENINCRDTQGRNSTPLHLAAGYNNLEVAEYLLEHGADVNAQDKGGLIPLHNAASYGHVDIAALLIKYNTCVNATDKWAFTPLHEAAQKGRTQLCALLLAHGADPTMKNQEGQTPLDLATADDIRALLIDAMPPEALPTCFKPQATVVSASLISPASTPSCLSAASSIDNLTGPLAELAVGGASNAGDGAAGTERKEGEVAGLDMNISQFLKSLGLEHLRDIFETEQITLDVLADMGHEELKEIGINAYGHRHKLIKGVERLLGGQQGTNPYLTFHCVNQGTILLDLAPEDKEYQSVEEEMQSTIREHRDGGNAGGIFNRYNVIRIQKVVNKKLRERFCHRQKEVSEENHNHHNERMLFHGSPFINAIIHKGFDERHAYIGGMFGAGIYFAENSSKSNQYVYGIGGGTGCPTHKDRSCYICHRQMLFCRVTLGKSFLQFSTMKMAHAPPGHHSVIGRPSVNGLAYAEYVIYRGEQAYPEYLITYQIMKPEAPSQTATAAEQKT
Nature of the experiment: TNKS1 Assay B (auto-parsylation, [3H]-NAD+ SPA). In kind it is biochemical. As to conditions: 6 nM TNKS1, auto-parsylation, over night at room temperature.

On to `CNC(=O)c1nc[nH]c1C(=O)N[C@H]1CC[C@]2(CCN(c3ccc(F)cc3Cl)C2=O)CC1` [Example 182, N^5-[(cis)-2-(2-chloro-4-fluorophenyl)-1-oxo-2-azaspiro[4.5]dec-8-yl]-N^4-methyl-1H-imidazole-4,5-dicarboxamide], for which the negative logarithm of the IC50 (pIC50) was 5.66.

For the compound `CC1CN(C(=O)c2nc[nH]c2C(=O)N[C@H]2CC[C@@]3(CCN(c4ccc(F)cc4Cl)C3=O)CC2)CCS(=O)(=O)C1` (stereo partly drawn) [Example 183, N-[(trans)-2-(2-chloro-4-fluorophenyl)-1-oxo-2-azaspiro[4.5]dec-8-yl]-4-[(6-methyl-1,1-dioxido-1,4-thiazepan-4-yl)carbonyl]-1H-imidazole-5-carboxamide], the negative logarithm of the IC50 (pIC50) was 6.15.

Consider `CN1CC2(CCN(C(=O)c3nc[nH]c3C(=O)N[C@H]3CC[C@@]4(CCN(c5ccc(F)cc5Cl)C4=O)CC3)C2)C1` [Example 184, N-[(trans)-2-(2-chloro-4-fluorophenyl)-1-oxo-2-azaspiro[4.5]dec-8-yl]-4-[(2-methyl-2,6-diazaspiro[3.4]oct-6-yl)carbonyl]-1H-imidazole-5-carboxamide], for which the pIC50 is 8.00.

Compound `CN1CC2(C1)CN(C(=O)c1nc[nH]c1C(=O)N[C@H]1CC[C@@]3(CCN(c4ccc(F)cc4Cl)C3=O)CC1)C2` [Example 185, N-[(trans)-2-(2-chloro-4-fluorophenyl)-1-oxo-2-azaspiro[4.5]dec-8-yl]-4-[(6-methyl-2,6-diazaspiro[3.3]hept-2-yl)carbonyl]-1H-imidazole-5-carboxamide] had a pIC50 of 8.06. This pIC50 and that of the compound before are within 0.2 log units of each other.

`NC(=O)c1nc[nH]c1C(=O)N[C@H]1CC[C@@]2(CCN(c3ccc(F)cc3Cl)C2=O)CC1` [Example 186, N^5-[(trans)-2-(2-chloro-4-fluorophenyl)-1-oxo-2-azaspiro[4.5]dec-8-yl]-1H-imidazole-4,5-dicarboxamide] gave a pIC50 of 7.74.

Turning to `CN1CC(NC(=O)c2nc[nH]c2C(=O)N[C@H]2CC[C@@]3(CCN(c4ccc(F)cc4Cl)C3=O)CC2)C1` [Example 187, N^5-[(trans)-2-(2-chloro-4-fluorophenyl)-1-oxo-2-azaspiro[4.5]dec-8-yl]-N^4-(1-methylazetidin-3-yl)-1H-imidazole-4,5-dicarboxamide], the negative logarithm of the IC50 (pIC50) was 7.92.

The compound `O=C(N[C@H]1CC[C@@]2(CCN(c3ccc(F)cc3Cl)C2=O)CC1)c1nc[nH]c1C(=O)NCC(F)(F)F` [Example 195, N^4-[(trans)-2-(2-chloro-4-fluorophenyl)-1-oxo-2-azaspiro[4.5]dec-8-yl]-N^5-(2,2,2-trifluoroethyl)-1H-imidazole-4,5-dicarboxamide] showed a negative logarithm of the IC50 (pIC50) of 7.96.

The compound `CNC(=O)c1nc[nH]c1C(=O)N[C@H]1CC[C@@]2(CCN(c3cc(F)c(F)cc3Cl)C2=O)CC1` [Example 196, N^5-[(trans)-2-(2-chloro-4,5-difluorophenyl)-1-oxo-2-azaspiro[4.5]dec-8-yl]-N^4-methyl-1H-imidazole-4,5-dicarboxamide] had a negative logarithm of the IC50 (pIC50) of 8.17.

In turn, `CCNC(=O)c1nc[nH]c1C(=O)N[C@H]1CC[C@@]2(CCN(c3cc(F)c(F)cc3Cl)C2=O)CC1` [Example 197, N^5-[(trans)-2-(2-chloro-4,5-difluorophenyl)-1-oxo-2-azaspiro[4.5]dec-8-yl]-N^4-ethyl-1H-imidazole-4,5-dicarboxamide] had a pIC50 of 8.35.

Take `CC(C)NC(=O)c1nc[nH]c1C(=O)N[C@H]1CC[C@@]2(CCN(c3cc(F)c(F)cc3Cl)C2=O)CC1` [Example 198, N^5-[(trans)-2-(2-chloro-4,5-difluorophenyl)-1-oxo-2-azaspiro[4.5]dec-8-yl]-N^4-(propan-2-yl)-1H-imidazole-4,5-dicarboxamide]: the pIC50 was 8.10.

Compound `O=C(NC1CC1)c1nc[nH]c1C(=O)N[C@H]1CC[C@@]2(CCN(c3cc(F)c(F)cc3Cl)C2=O)CC1` [Example 199, N^5-[(trans)-2-(2-chloro-4,5-difluorophenyl)-1-oxo-2-azaspiro[4.5]dec-8-yl]-N^4-cyclopropyl-1H-imidazole-4,5-dicarboxamide] showed a negative-log IC50 (pIC50) of 8.12.

`O=C(N[C@H]1CC[C@@]2(CCN(c3cc(F)c(F)cc3Cl)C2=O)CC1)c1[nH]cnc1C(=O)N1CC(F)C1` [Example 200, N-[(trans)-2-(2-chloro-4,5-difluorophenyl)-1-oxo-2-azaspiro[4.5]dec-8-yl]-4-[(3-fluoroazetidin-1-yl)carbonyl]-1H-imidazole-5-carboxamide]: the pIC50 is 8.16.

`O=C(NCC(F)(F)F)c1nc[nH]c1C(=O)N[C@H]1CC[C@@]2(CCN(c3cc(F)c(F)cc3Cl)C2=O)CC1` [Example 201, N^5-[(trans)-2-(2-chloro-4,5-difluorophenyl)-1-oxo-2-azaspiro[4.5]dec-8-yl]-N^4-(2,2,2-trifluoroethyl)-1H-imidazole-4,5-dicarboxamide]: the negative-log IC50 (pIC50) is 8.26. This pIC50 and that of the compound before are within 0.2 log units of each other.

`COCCNC(=O)c1nc[nH]c1C(=O)N[C@H]1CC[C@@]2(CCN(c3cc(F)c(F)cc3Cl)C2=O)CC1` [Example 202, N^5-[(trans)-2-(2-chloro-4,5-difluorophenyl)-1-oxo-2-azaspiro[4.5]dec-8-yl]-N^4-(2-methoxyethyl)-1H-imidazole-4,5-dicarboxamide] had a pIC50 of 8.14.

In turn, `CNC(=O)c1nc[nH]c1C(=O)N[C@H]1CC[C@H](C(=O)N(C)c2ccccc2C)CC1` [Example 203, N^4-methyl-N^5-{trans-4-[methyl(2-methylphenyl)carbamoyl]cyclohexyl}-1H-imidazole-4,5-dicarboxamide] showed a pIC50 of 6.20. This pIC50 lies 1.94 log units lower than the previous one.

In the case of `O=C(N[C@H]1CC[C@H](C(=O)Nc2ccc(F)cc2Cl)CC1)c1cnn2ccccc12` [Example 205, N-{trans-4-[(2-chloro-4-fluorophenyl)carbamoyl]cyclohexyl}pyrazolo[1,5-a]pyridine-3-carboxamide], the pIC50 is < 5.00.

Take `O=C(N[C@H]1CC[C@H](C(=O)Nc2ccc(F)cc2Cl)CC1)c1cnc2ccccn12` [Example 206, N-{trans-4-[(2-chloro-4-fluorophenyl)carbamoyl]cyclohexyl}imidazo[1,2-a]pyridine-3-carboxamide]: the pIC50 is < 5.00.

Turning to `Cc1cc(C)n2ncc(C(=O)N[C@H]3CC[C@]4(CCN(c5ccc(F)cc5)C4=O)CC3)c2n1` [Example 208, N-[(cis)-2-(4-fluorophenyl)-1-oxo-2-azaspiro[4.5]dec-8-yl]-5,7-dimethyl pyrazolo[1,5-a]pyrimidine-3-carboxamide], the pIC50 was 5.25.

Turning to `O=C(N[C@H]1CC[C@@]2(CCN(c3ccc(F)cc3)C2=O)CC1)c1cnn2cccnc12` [Example 209, N-[(trans)-2-(4-fluorophenyl)-1-oxo-2-azaspiro[4.5]dec-8-yl]pyrazolo[1,5-a]pyrimidine-3-carboxamide], the pIC50 is 5.92.

`Cc1cnc2c(C(=O)N[C@H]3CC[C@@]4(CCN(c5ccc(F)cc5)C4=O)CC3)cnn2c1` [Example 210, N-[(trans)-2-(4-fluorophenyl)-1-oxo-2-azaspiro[4.5]dec-8-yl]-6-methylpyrazolo[1,5-a]pyrimidine-3-carboxamide] gave a negative-log IC50 (pIC50) of 6.41.

In turn, `Cc1cc(C)n2ncc(C(=O)N[C@H]3CC[C@@]4(CCN(c5ccc(F)cc5)C4=O)CC3)c2n1` [Example 211, N-[(trans)-2-(4-fluorophenyl)-1-oxo-2-azaspiro[4.5]dec-8-yl]-5,7-di methyl pyrazolo[1,5-a]pyrimidine-3-carboxamide] had a pIC50 of 6.37.

Source of the values: US20180148418A1, “AMIDO-SUBSTITUTED CYCLOHEXANE DERIVATIVES” (Bayer Pharma Aktiengesellschaft, priority 2015, published 2018).
